Experimental data published in PubChem BioAssay AID2060903 (Molecular Pharmacology Branch, DTP, NCI, 2025).

Test system: 377384-186-R-J1-PDC complex spheroid viability
Assay: Anticancer human tumor 377384-186-R-J1-PDC patient-derived pancreatic carcinoma cell line growth inhibition [RAS]
Conditions: for IC50: curve of first compound; for viability, T/C: stronger effect = lower value
Source text: RAS pathway inhibitors in Combinations in Complex Spheroids
A high-throughput screen of multi-cell type tumor spheroids was designed to identify active combinations of RAS pathway inhibitors and targeted small molecules. Complex spheroids include a stromal component modeled by human endothelial cells (HUVEC) and fibroblasts modeled by human mesenchymal stem cells (MSCs). The concentration ranges selected for each drug and investigational agent were based upon clinically achievable concentrations if the clinical Cmax of the agent was known.
Compounds. The drugs and investigational agents: abemaciclib (NSC768073), cobimetinib (NSC768068), divarasib (GDC6063, NSC841802), docetaxel (NSC628503), GDC-1971 (RLY-1971, NSC841576), gemcitabine (NSC613327), inavolisib (NSC800729), ipatasertib (NSC767898), KB-0742 (NSC834161), MRTX-1133 (NSC836407), osimertinib (NSC779217), RMC-4630 (NSC839698), RMC-6236 (NSC851965), RMC-6291 (NSC852671), Ro-3306 (NSC812927), sapanisertib (NSC764658), SN-38 (NSC673596), staurosporine (NSC755774), SY5609 (NSC837396), and tovorafenib (DAY101, NSC766906), were obtained from the National Cancer Institute (NCI) Developmental Therapeutics Program Chemical Repository. The FDA-approved anticancer drug set is available from the NCI Developmental Therapeutics Program. […] The stock solutions were prepared in dimethyl sulfoxide (DMSO, Sigma-Aldrich, St. Louis, MO, cat. D2650) at 800-fold the tested concentration and stored at -70 degrees C prior to their use. All drugs and investigational agents were tested over a range starting from a high concentration at or near the clinical Cmax and decreasing in half-log increments. If the clinical Cmax for an agent had not been determined, the highest concentration tested was 10 microM.
Cell Culture. All cells were maintained in an incubator at 37 degrees C and 5% CO2 with 95% humidity. The PDC lines were cultured according to standard operating procedures established by the NCI PDMR. All PDCs were thawed and cultured in Matrigel-coated flasks prepared with a working solution of 1X Ham's F-12 nutrient mix, without supplementation (Invitrogen, Waltham, MA, cat. 11765054), 100 U/mL penicillin-streptomycin (Invitrogen, cat. 15140122), and 2.5% Matrigel (Corning Inc., Corning, NY, cat. 354248) for the first three passages. The 362531-283-R-J2-PDC and 782815-120-R-J1-PDC lines were cultured in 6C/Colon 1B media, which includes advanced DMEM/F-12 (Thermo Fisher Scientific, cat. 12634028), 10 mM HEPES (Thermo Fisher Scientific, cat. 15630080), 1X GlutaMAX supplement (Thermo Fisher Scientific, cat. 35050061), 0.1 mg/mL primocin (InvivoGen, San Diego, CA, cat. ant-pm-2), 10% defined fetal bovine serum, heat inactivated (HyClone Laboratories Inc., Logan, UT, cat. SH30070.03HI), 50% L-WRN conditioned media (ATCC, cat. CRL-3276), 1.25 mM N-Acetyl-L-cysteine (Sigma-Aldrich, cat. A9165), 10 mM nicotinamide (Sigma-Aldrich, cat. N0636), 1X B-27 supplement (Thermo Fisher Scientific, cat. 17504044), 1X N-2 supplement (Thermo Fisher Scientific, cat. 17502048), 50 ng/mL human EGF (Thermo Fisher Scientific, cat. PHG0311), and 10 microM Y-27632 dihydrochloride (Tocris Bioscience, cat. 1254). The K12877-001-R-J1-PDC line was cultured in 6I media, which includes all 6C/Colon 1B media plus 10 ng/mL human FGF-10 (PeproTech, cat. 100-26), 1 ng/mL human FGF-2 (PeproTech, cat. 100-18B), 1 µM prostaglandin E2 (Tocris Bioscience, cat. 2296), […] hydrocortisone (Sigma-Aldrich, cat. H4001), and […] bovine insulin (Sigma-Aldrich, cat. I6634). The K86415-001-R-J1-PDC line was cultured in 6D media, which includes all 6C/Colon 1B media components minus the L-WRN conditioned media. The 485176-168-R4-J1-PDC was cultured in PANC media, which includes all 6C/Colon 1B media plus 100 ng/mL human FGF-10 (PeproTech, cat. 100-26), 500 nM SB-431542 (Selleckchem, cat. S1067), and 10 nM gastrin (Tocris Bioscience, cat. 3006). […]

[1] = second compound 0.0316 µM, first compound 0.0316 µM
[2] = second compound 0.0316 µM, first compound 0.1 µM
[3] = second compound 0.0316 µM, first compound 0.316 µM
[4] = second compound 0.0316 µM, first compound 1 µM
[5] = second compound 0.0316 µM, first compound 3.16 µM
[6] = second compound 0.0316 µM, first compound 10 µM
[7] = second compound 0.1 µM, first compound 0.0316 µM
[8] = second compound 0.1 µM, first compound 0.1 µM
[9] = second compound 0.1 µM, first compound 0.316 µM
[10] = second compound 0.1 µM, first compound 1 µM
[11] = second compound 0.1 µM, first compound 3.16 µM
[12] = second compound 0.1 µM, first compound 10 µM
[13] = second compound 0.316 µM, first compound 0.0316 µM
[14] = second compound 0.316 µM, first compound 0.1 µM
[15] = second compound 0.316 µM, first compound 0.316 µM
[16] = second compound 0.316 µM, first compound 1 µM
[17] = second compound 0.316 µM, first compound 3.16 µM
[18] = second compound 0.316 µM, first compound 10 µM
[19] = second compound 1 µM, first compound 0.0316 µM
[20] = second compound 1 µM, first compound 0.1 µM
[21] = second compound 1 µM, first compound 0.316 µM
[22] = second compound 1 µM, first compound 1 µM
[23] = second compound 1 µM, first compound 3.16 µM
[24] = second compound 1 µM, first compound 10 µM
[25] = second compound 3.16 µM, first compound 0.0316 µM
[26] = second compound 3.16 µM, first compound 0.1 µM
[27] = second compound 3.16 µM, first compound 0.316 µM
[28] = second compound 3.16 µM, first compound 1 µM
[29] = second compound 3.16 µM, first compound 3.16 µM
[30] = second compound 3.16 µM, first compound 10 µM
[31] = second compound 10 µM, first compound 0.0316 µM
[32] = second compound 10 µM, first compound 0.1 µM
[33] = second compound 10 µM, first compound 0.316 µM
[34] = second compound 10 µM, first compound 1 µM
[35] = second compound 10 µM, first compound 3.16 µM
[36] = second compound 10 µM, first compound 10 µM
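Note: spheroids exposed to compounds for seven days before readout.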

CCC(CC)c1cc(NC2CCC(N)C2)n2nccc2n1 (stereo unspecified) + C#Cc1c(F)ccc2cc(O)cc(-c3ncc4c(N5CC6CCC(C5)N6)nc(OCC56CCCN5CC(F)C6)nc4c3F)c12
IC50 (second compound 0.0316 µM): < 31.6 nM | IC50 (second compound 0.1 µM): < 31.6 nM | IC50 (second compound 0.316 µM): < 31.6 nM | IC50 (second compound 1 µM): < 31.6 nM | IC50 (second compound 3.16 µM): < 31.6 nM | IC50 (second compound 10 µM): < 31.6 nM | viability, T/C [1]: 27.3% | viability, T/C [2]: 24.2% | viability, T/C [3]: 22.7% | viability, T/C [4]: 16% | viability, T/C [5]: 1.58% | viability, T/C [6]: 5.35% | viability, T/C [7]: 10.8% | viability, T/C [8]: 12.2% | viability, T/C [9]: 7.8% | viability, T/C [10]: 9.56% | viability, T/C [11]: 1.88% | viability, T/C [12]: 5.23% | viability, T/C [13]: 5.57% | viability, T/C [14]: 5.89% | viability, T/C [15]: 4.79% | viability, T/C [16]: 4.23% | viability, T/C [17]: 1.7% | viability, T/C [18]: 5.13% | viability, T/C [19]: 3.15% | viability, T/C [20]: 3.52% | viability, T/C [21]: 2.78% | viability, T/C [22]: 3.71% | viability, T/C [23]: 2.1% | viability, T/C [24]: 6.67% | viability, T/C [25]: 2.7% | viability, T/C [26]: 2.53% | viability, T/C [27]: 2.14% | viability, T/C [28]: 2.51% | viability, T/C [29]: 1.88% | viability, T/C [30]: 6.5% | viability, T/C [31]: 1.53% | viability, T/C [32]: 1.24% | viability, T/C [33]: 1.12% | viability, T/C [34]: 1.66% | viability, T/C [35]: 1.33% | viability, T/C [36]: 3.5%

Cc1nc(N2CCC3(CC2)COC(C)C3N)c(CO)nc1Sc1ccnc(N)c1Cl (stereo unspecified) + C#Cc1c(F)ccc2cc(O)cc(-c3ncc4c(N5CC6CCC(C5)N6)nc(OCC56CCCN5CC(F)C6)nc4c3F)c12
IC50 (second compound 0.0316 µM): < 31.6 nM | IC50 (second compound 0.1 µM): < 31.6 nM | IC50 (second compound 0.316 µM): < 31.6 nM | IC50 (second compound 1 µM): < 31.6 nM | IC50 (second compound 3.16 µM): < 31.6 nM | IC50 (second compound 10 µM): < 31.6 nM | viability, T/C [1]: 12.6% | viability, T/C [2]: 5.6% | viability, T/C [3]: 3.15% | viability, T/C [4]: 1.95% | viability, T/C [5]: 1.57% | viability, T/C [6]: 0.92% | viability, T/C [7]: 5.2% | viability, T/C [8]: 3.07% | viability, T/C [9]: 1.59% | viability, T/C [10]: 0.92% | viability, T/C [11]: 0.97% | viability, T/C [12]: 0.63% | viability, T/C [13]: 2.68% | viability, T/C [14]: 1.49% | viability, T/C [15]: 0.84% | viability, T/C [16]: 0.98% | viability, T/C [17]: 0.78% | viability, T/C [18]: 0.67% | viability, T/C [19]: 1.74% | viability, T/C [20]: 1.54% | viability, T/C [21]: 1.31% | viability, T/C [22]: 0.99% | viability, T/C [23]: 0.81% | viability, T/C [24]: 0.51% | viability, T/C [25]: 1.99% | viability, T/C [26]: 1.51% | viability, T/C [27]: 1.34% | viability, T/C [28]: 0.77% | viability, T/C [29]: 0.8% | viability, T/C [30]: 0.33% | viability, T/C [31]: 1.85% | viability, T/C [32]: 0.91% | viability, T/C [33]: 0.69% | viability, T/C [34]: 0.44% | viability, T/C [35]: 0.38% | viability, T/C [36]: 0.14%

NC1c2ccccc2OC12CCN(c1cnc3c(N4CCCc5ncccc54)n[nH]c3n1)CC2 (stereo unspecified) + C#Cc1c(F)ccc2cc(O)cc(-c3ncc4c(N5CC6CCC(C5)N6)nc(OCC56CCCN5CC(F)C6)nc4c3F)c12
IC50 (second compound 0.0316 µM): < 31.6 nM | IC50 (second compound 0.1 µM): < 31.6 nM | IC50 (second compound 0.316 µM): < 31.6 nM | IC50 (second compound 1 µM): < 31.6 nM | IC50 (second compound 3.16 µM): < 31.6 nM | IC50 (second compound 10 µM): < 31.6 nM | viability, T/C [1]: 2.52% | viability, T/C [2]: 1.69% | viability, T/C [3]: 1.2% | viability, T/C [4]: 0.72% | viability, T/C [5]: 0.33% | viability, T/C [6]: 0.32% | viability, T/C [7]: 1.81% | viability, T/C [8]: 1.39% | viability, T/C [9]: 0.82% | viability, T/C [10]: 0.62% | viability, T/C [11]: 0.38% | viability, T/C [12]: 0.25% | viability, T/C [13]: 1.2% | viability, T/C [14]: 0.66% | viability, T/C [15]: 0.72% | viability, T/C [16]: 0.67% | viability, T/C [17]: 0.35% | viability, T/C [18]: 0.35% | viability, T/C [19]: 1.27% | viability, T/C [20]: 1.46% | viability, T/C [21]: 0.57% | viability, T/C [22]: 0.5% | viability, T/C [23]: 0.21% | viability, T/C [24]: 0.22% | viability, T/C [25]: 0.86% | viability, T/C [26]: 1.11% | viability, T/C [27]: 0.52% | viability, T/C [28]: 0.29% | viability, T/C [29]: 0.29% | viability, T/C [30]: 0.34% | viability, T/C [31]: 0.92% | viability, T/C [32]: 0.33% | viability, T/C [33]: 0.31% | viability, T/C [34]: 0.14% | viability, T/C [35]: 0.19% | viability, T/C [36]: 0.12%
